Data taken from patent US10316049B2, “Tank-binding kinase inhibitor compounds” (Gilead Sciences, Inc., priority 2015, dated 2019).

Experiments:
IKKε = biological target: T1, IKKε (Homo sapiens, UniProt Q14164); assay: TR-FRET enzymatic activity assay, IKKε; assay type: biochemical; details: read-out: IKKϵ IC50; note: full length recombinant IKKε at 0.3 nM
T1 construct: TBK1 and IKKε were expressed and purified as full length recombinant proteins; made in house
T1 sequence (Q14164 1-716): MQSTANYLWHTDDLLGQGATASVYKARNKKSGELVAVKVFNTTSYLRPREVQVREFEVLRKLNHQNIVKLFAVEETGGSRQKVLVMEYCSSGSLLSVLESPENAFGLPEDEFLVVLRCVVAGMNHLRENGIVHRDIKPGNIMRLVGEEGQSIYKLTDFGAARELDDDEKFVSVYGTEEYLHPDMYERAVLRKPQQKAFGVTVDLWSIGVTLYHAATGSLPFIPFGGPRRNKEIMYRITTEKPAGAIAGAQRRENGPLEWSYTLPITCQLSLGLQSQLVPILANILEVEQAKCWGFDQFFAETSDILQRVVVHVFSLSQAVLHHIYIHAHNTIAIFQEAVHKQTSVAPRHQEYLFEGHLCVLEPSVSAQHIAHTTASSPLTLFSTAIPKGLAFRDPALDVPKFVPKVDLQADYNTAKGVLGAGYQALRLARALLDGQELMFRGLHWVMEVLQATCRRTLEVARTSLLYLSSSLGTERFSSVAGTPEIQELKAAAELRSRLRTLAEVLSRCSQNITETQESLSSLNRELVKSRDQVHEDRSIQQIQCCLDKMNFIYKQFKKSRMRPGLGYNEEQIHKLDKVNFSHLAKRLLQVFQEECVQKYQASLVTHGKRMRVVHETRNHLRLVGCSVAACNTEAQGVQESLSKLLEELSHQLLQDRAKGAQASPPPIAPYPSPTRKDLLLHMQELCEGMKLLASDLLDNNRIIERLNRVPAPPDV
Description: (§1) Biological Assay for TBK1 and IKKε:
Enzymatic activity of IKKε and TBK1 was measured using a homogeneous time resolved fluorescence resonance energy transfer (TR-FRET) assay that monitors enzyme dependent phosphorylation of a biotinylated serine/threonine peptide substrate. […] TBK1 and IKKε were expressed and purified as full length recombinant proteins. Detection reagents for the assay were purchased from Cisbio. […] After an assay reaction time of 240 minutes at 25° C., reactions were terminated with EDTA.
(§2) Amount of phosphorylated peptide was determined by the addition of 125 nM streptavidin XL665 and europium cryptate labeled anti-phospho monoclonal antibody and the resulting TR-FRET signal was recorded on an Envision plate reader (Ex: 340 nm; Em: 615/665 nm; 100 μs delay and 200 μs read window). Data was normalized based on a positive (1 μM Staurosporine) and negative (DMSO) controls and IC50 values calculated from the fit of the dose-response curves to a four-parameter equation. All IC50 values represent geometric mean values of a minimum of four determinations.

TBK1 = biological target: T2, TBK1 (Homo sapiens, UniProt Q9UHD2); assay: TR-FRET enzymatic activity assay, TBK1; assay type: biochemical; note: full length recombinant TBK1 at 2.5 nM
T2 construct: TBK1 and IKKε were expressed and purified as full length recombinant proteins; made in house
T2 sequence (Q9UHD2 1-729): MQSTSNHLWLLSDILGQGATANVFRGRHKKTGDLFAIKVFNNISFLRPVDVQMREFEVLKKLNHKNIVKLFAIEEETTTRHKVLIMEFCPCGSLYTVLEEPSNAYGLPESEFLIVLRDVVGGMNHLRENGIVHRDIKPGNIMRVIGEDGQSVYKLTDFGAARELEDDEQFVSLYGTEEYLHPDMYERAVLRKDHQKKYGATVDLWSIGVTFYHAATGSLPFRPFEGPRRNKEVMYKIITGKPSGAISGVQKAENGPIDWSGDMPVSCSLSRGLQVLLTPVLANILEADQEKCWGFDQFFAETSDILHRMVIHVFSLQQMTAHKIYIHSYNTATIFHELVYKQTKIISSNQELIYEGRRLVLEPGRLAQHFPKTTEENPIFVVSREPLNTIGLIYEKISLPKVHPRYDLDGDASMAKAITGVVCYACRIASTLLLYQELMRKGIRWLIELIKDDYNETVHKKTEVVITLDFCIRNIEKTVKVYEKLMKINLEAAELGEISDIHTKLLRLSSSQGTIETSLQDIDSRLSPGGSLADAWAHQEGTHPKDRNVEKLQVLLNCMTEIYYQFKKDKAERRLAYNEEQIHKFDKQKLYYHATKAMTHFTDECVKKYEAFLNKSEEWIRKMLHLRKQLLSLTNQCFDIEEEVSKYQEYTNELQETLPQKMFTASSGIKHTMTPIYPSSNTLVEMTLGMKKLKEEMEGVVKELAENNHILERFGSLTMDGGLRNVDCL
Description: as §1
Enzymatic activity of IKKε and TBK1 was measured using a homogeneous time resolved fluorescence resonance energy transfer (TR-FRET) assay that monitors enzyme dependent phosphorylation of a biotinylated serine/threonine peptide substrate. An increase in the amount of phosphorylated peptide results in an increase in TR-FRET signal. TBK1 and IKKε were expressed and purified as full length recombinant proteins. Detection reagents for the assay were purchased from Cisbio. […] After an assay reaction time of 240 minutes at 25° C., reactions were terminated with EDTA.
as §2, with “determinations. These assays generally produced results within 3-fold of the reported mean.” for “determinations.”

Work on `N#Cc1cc(-c2cc(NC(=O)C3CC3)ncn2)ccc1O[C@H]1CCN(C(=O)CCO)CC1(F)F` [Example 154, (S)—N-(6-(3-cyano-4-((3,3-difluoro-1-(3-hydroxypropanoyl)piperidin-4-yl)oxy)phenyl)pyrimidin-4-yl)cyclopropanecarboxamide] yielded an IC50 (IKKε) of 387 nM and an IC50 (TBK1) of 41.5 nM.

`N#Cc1cc(-c2ccnc(NC(=O)[C@@H]3C[C@@H]3C(N)=O)c2)ccc1O[C@H]1CCN(C(=O)CO)C[C@H]1F` (stereo in doubt) [Example 82, (1,2-cis)-N1-(4-(3-cyano-4-(((3R,4S)-3-fluoro-1-(2-hydroxyacetyl)piperidin-4-yl)oxy)phenyl)pyridin-2-yl)cyclopropane-1,2-dicarboxamide] was tested, and the IC50 (IKKε) was 857 nM and the IC50 (TBK1) was 607 nM.

Work on `N#Cc1cc(-c2ccnc(NC(=O)[C@H]3C[C@@H]3c3cccnc3)c2)ccc1OC1CCOCC1` (relative stereo) [Example 100, (1,2-trans)-N-(4-(3-cyano-4-((tetrahydro-2H-pyran-4-yl)oxy)phenyl)pyridin-2-yl)-2-(pyridin-3-yl)cyclopropane-1-carboxamide] yielded an IC50 (IKKε) of 130 nM and an IC50 (TBK1) of 20.3 nM.

In the case of `N#Cc1cc(-c2ccnc(NC(=O)[C@@H]3C[C@H]3c3cnco3)c2)ccc1OC1CCOCC1` (relative stereo) [Example 43, (1,2-trans)-N-(4-(3-cyano-4-((tetrahydro-2H-pyran-4-yl)oxy)phenyl)pyridin-2-yl)-2-(oxazol-5-yl)cyclopropane-1-carboxamide], the IC50 (IKKε) is reported as 146 nM and the IC50 (TBK1) is reported as 61.3 nM.

`N#Cc1cc(-c2cc(NC(=O)C3CC3)ncn2)ccc1O[C@H]1CCN(C=O)C[C@H]1F` [Example 29, N-(6-(3-cyano-4-(((3R,4S)-3-fluoro-1-formylpiperidin-4-yl)oxy)phenyl)pyrimidin-4-yl)cyclopropanecarboxamide] was tested, and the IC50 (IKKε) was 128 nM and the IC50 (TBK1) was 46.6 nM.

`Cn1cc([C@@H]2C[C@H]2C(=O)Nc2cc(-c3ccc(O[C@H]4CCN(C(=O)[C@@H](O)CO)C[C@H]4F)c(C#N)c3)ncn2)cn1` [Example 146, (1,2-Trans)-N-(6-(3-cyano-4-(((3R,4S)-1-((S)-2,3-dihydroxypropanoyl)-3-fluoropiperidin-4-yl)oxy)phenyl)pyrimidin-4-yl)-2-(1-methyl-1H-pyrazol-4-yl)cyclopropane-1-carboxamide] showed an IC50 (IKKε) of 30.8 nM and an IC50 (TBK1) of 16.1 nM.

For `C[C@H](N)C(=O)OCC(=O)N1CC[C@H](Oc2ccc(-c3cc(NC(=O)C4CC4)ncn3)cc2C#N)C(F)(F)C1` [Example 159, 2-((S)-4-(2-cyano-4-(6-(cyclopropanecarboxamido)pyrimidin-4-yl)phenoxy)-3,3-difluoropiperidin-1-yl)-2-oxoethyl L-Alaninate], the IC50 (IKKε) was 39.3 nM and the IC50 (TBK1) was 12.8 nM.

`N#Cc1cc(-c2ccnc(NC(=O)[C@@H]3C[C@H]3F)c2)ccc1O[C@H]1CCN(C(=O)CO)C[C@H]1F` [Example 62, (1S,2R)—N-(4-(3-cyano-4-(((3R,4S)-3-fluoro-1-(2-hydroxyacetyl)piperidin-4-yl)oxy)phenyl)pyridin-2-yl)-2-fluorocyclopropanecarboxamide] showed an IC50 (IKKε) of 16.2 nM and an IC50 (TBK1) of 16.7 nM.

Work on `N#CCC(=O)N1CC[C@H](Oc2ccc(-c3cc(NC(=O)C4CC4)ncn3)cc2C#N)C(F)(F)C1` [Example 153, (S)—N-(6-(3-cyano-4-((1-(2-cyanoacetyl)-3,3-difluoropiperidin-4-yl)oxy)phenyl)pyrimidin-4-yl)cyclopropanecarboxamide] yielded an IC50 (IKKε) of 140 nM and an IC50 (TBK1) of 23.6 nM.

With `N#Cc1cc(-c2ccnc(NC(=O)C3CC3)c2)ccc1N1CCC[C@@H]1C(N)=O` [Example 95, (R)-1-(2-cyano-4-(2-(cyclopropanecarboxamido)pyridin-4-yl)phenyl)pyrrolidine-2-carboxamide] the IC50 (IKKε) was > 1000 nM and the IC50 (TBK1) was 258 nM.

Work on `N#Cc1cc(-c2cc(NC(=O)C3CC3)ncn2)ccc1O[C@H]1CCN(C(=O)[C@@H](O)CO)CC1(F)F` [Example 22, N-(6-(3-cyano-4-(((S)-1-((S)-2,3-dihydroxypropanoyl)-3,3-difluoropiperidin-4-yl)oxy)phenyl)pyrimidin-4-yl)cyclopropanecarboxamide] yielded an IC50 (IKKε) of 9 nM and an IC50 (TBK1) of 2.8 nM.

`CC(=O)OC1(C(=O)Nc2cc(-c3ccc(OC4CCOCC4)c(C#N)c3)ccn2)CC1` [Example 37, 1-((4-(3-cyano-4-((tetrahydro-2H-pyran-4-yl)oxy)phenyl)pyridin-2-yl)carbamoyl)cyclopropyl acetate] was tested, and the IC50 (IKKε) was > 1000 nM and the IC50 (TBK1) was > 1000 nM.

`Cc1n[nH]c(C(=O)N2CC[C@H](Oc3ccc(-c4cc(NC(=O)C5CC5)ncn4)cc3C#N)[C@H](F)C2)n1` [Example 30, N-(6-(3-cyano-4-(((3R,4S)-3-fluoro-1-(3-methyl-1H-1,2,4-triazole-5-carbonyl)piperidin-4-yl)oxy)phenyl)pyrimidin-4-yl)cyclopropanecarboxamide] was tested, and the IC50 (IKKε) was 7.4 nM and the IC50 (TBK1) was 7.2 nM.

With `N#Cc1cc(-c2ccnc(NC(=O)C3CC3)c2)ccc1O[C@H]1CCN(C(=O)[C@@H](O)CO)CC1(F)F` [Example 157, N-(4-(3-cyano-4-(((S)-1-((S)-2,3-dihydroxypropanoyl)-3,3-difluoropiperidin-4-yl)oxy)phenyl)pyridin-2-yl)cyclopropanecarboxamide] the IC50 (IKKε) was 4.7 nM and the IC50 (TBK1) was 4.4 nM.

With `N#Cc1cc(-c2ccnc(NC(=O)[C@H]3[C@@H]4CNC[C@@H]43)c2)ccc1OC1CCOCC1` [Example 124, (1R,5S,6R-rel)-N-(4-(3-cyano-4-((tetrahydro-2H-pyran-4-yl)oxy)phenyl)pyridin-2-yl)-3-azabicyclo[3.1.0]hexane-6-carboxamide] the IC50 (IKKε) was 316 nM and the IC50 (TBK1) was 628 nM.

`N#Cc1cc(-c2ccnc(NC(=O)[C@@H]3C[C@H]3c3cccnc3)c2)ccc1O[C@H]1CCN(C(=O)[C@@H](O)CO)CC1(F)F` [Example 133, (1,2-Trans)-N-(4-(3-cyano-4-(((S)-1-((S)-2,3-dihydroxypropanoyl)-3,3-difluoropiperidin-4-yl)oxy)phenyl)pyridin-2-yl)-2-(pyridin-3-yl)cyclopropane-1-carboxamide] showed an IC50 (IKKε) of 9.9 nM and an IC50 (TBK1) of 6.4 nM.

In the case of `N#Cc1cc(-c2ccnc(NC(=O)[C@@H]3CC3C(=O)O)c2)ccc1O[C@H]1CCN(C(=O)CO)C[C@H]1F` (stereo in doubt) [Example 84, (1,2-trans)-2-((4-(3-cyano-4-(((3R,4S)-3-fluoro-1-(2-hydroxyacetyl)piperidin-4-yl)oxy)phenyl)pyridin-2-yl)carbamoyl)cyclopropane-1-carboxylic acid], the IC50 (IKKε) is reported as 135 nM and the IC50 (TBK1) is reported as 333 nM.

With `N#Cc1cc(-c2cc(NC(=O)C3CC3)ncn2)ccc1F` [Example 105, N-(6-(3-cyano-4-fluorophenyl)pyrimidin-4-yl)cyclopropanecarboxamide] the IC50 (IKKε) was > 1000 nM and the IC50 (TBK1) was > 1000 nM.
